Experimental data reported in US12576150B2, “CD4+ T cells expressing IL-10 and chimeric antigen receptors and uses thereof” (TR1X, INC., priority 2021, dated 2026).

Tested on: NLPR3 inflammasome, LPS activated monocytes
Test: IL-1β production by LPS activated monocytes
Assay type: cell-based, human
Conditions: with anti-IL-10 receptor antibody
Protocol: CD14^+ monocytes were isolated from PBMC using a pan monocyte isolation kit (Miltenyi Biotec, Bergisch Gladbach, Germany) and plated in 96 flat microtiter wells at 2×10^5/200 μL per well and cultured in the presence of LPS. The cells were cultured further in the presence of Z-YVADfmk (20 μM), MMC950 (10 μM), IL-10 (10 ng/ml) or various concentrations of single- or pooled donor […] cell supernatants as summarized in Table 1.
The supernatants were obtained from single- or pooled donor CD4^IL-10 cells activated for 72 hours with a combination of CD3 and CD28 antibodies as described previously. (Andolfi et al. 2012, Mol. Therapy Vol. 20, 1778-1790, Locafaro et al. Mol Ther 2017, 25, 2254) In some cases (FIGS. 35C and 35D), the monocytes were incubated with LPS in combination with the NLPR3 inflammasome activator nigericin (“NIG”) which was added during the last 30 minutes of the LPS activation.

SMILES	effect of anti-IL-10 receptor antibody on the inhibition of IL-1β production
CC(C)(O)c1coc(S(=O)(=O)NC(=O)Nc2c3c(cc4c2CCC4)CCC3)c1 [MCC950]	no effect
COC(=O)C[C@H](NC(=O)[C@H](C)NC(=O)[C@@H](NC(=O)[C@H](Cc1ccc(O)cc1)NC(=O)OCc1ccccc1)C(C)C)C(=O)CF [Z-YVADfmk]	no effect
